Results on one compound are retold here after article PMC8258697 (The Journal of Biological Chemistry, 2021).

In one test the target is T1, RXRα wildtype LBD (Homo sapiens, UniProt P19793).
T1 construct: MBP-Asn10-His8-TEV site (N, cleaved yes); made in house; host or cells: E. coli T7 express (co-expressed with GroEL/ES)
T1 sequence (P19793 223-462): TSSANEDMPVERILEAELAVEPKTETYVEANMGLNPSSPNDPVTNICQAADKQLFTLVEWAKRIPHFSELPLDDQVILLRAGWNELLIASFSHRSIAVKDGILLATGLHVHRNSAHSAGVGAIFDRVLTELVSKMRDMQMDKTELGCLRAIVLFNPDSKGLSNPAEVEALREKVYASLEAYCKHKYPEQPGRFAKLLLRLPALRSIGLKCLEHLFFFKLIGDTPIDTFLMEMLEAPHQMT
Kind of test: Isothermal titration calorimetry, RXRα wildtype LBD. The format is binding. The conditions noted are these: 25°C. The method, then:
SI method 1: LBD pulldown
In order to verify proper dimer formation capability of the majority of the protein preparation a pulldown experiment was performed. Therefore, small centrifugal filter columns (nylon membrane with […] pore size; VWR) were loaded with 20 µl of Pierce® high capacity streptavidin agarose beads (Thermo Scientific) equilibrated in HTRF buffer [25 mM HEPES pH 7.5, 150 mM KF, 10% (w/v) glycerol, 5 mM DTT (fresh)], then 20 µl of a mixture of biotin coupled RXRα LBD (4 µg) and the respective PPAR LBD (1.4 µg) was applied. After incubation for 10 min at room temperature followed by centrifugation for 2 min and 900 x g the input mixture as well as the flowthrough was analyzed via SDS PAGE. Gels were scanned using an Li-Cor Odyssey imager (LI-COR® Biosciences GmbH, Germany). […]
The heats of dilution resulting from titrating one of the RXRα LBD proteins into the cell containing only buffer were recorded separately and subtracted from the raw ITC data obtained with compound. Data were analyzed using the NanoAnalyze software package (version 3.7.5). […] Free energy change (ΔG) was calculated using the equation […]
and from there the entropy (ΔS) was calculated from […]
25 injections of 2 µl were performed after an initial injection of 0.5 µl. […] The heats of dilution resulting from titrating of protein into buffer were recorded separately and subtracted. […]

Test [1] addresses T2, PPARγ LBD (Homo sapiens, UniProt P37231).
T2 construct: His10-tag with TEV site (N, cleaved yes); made in house; host or cells: E. coli T7 express (co-expressed with GroEL/ES)
T2 sequence (P37231 234-505): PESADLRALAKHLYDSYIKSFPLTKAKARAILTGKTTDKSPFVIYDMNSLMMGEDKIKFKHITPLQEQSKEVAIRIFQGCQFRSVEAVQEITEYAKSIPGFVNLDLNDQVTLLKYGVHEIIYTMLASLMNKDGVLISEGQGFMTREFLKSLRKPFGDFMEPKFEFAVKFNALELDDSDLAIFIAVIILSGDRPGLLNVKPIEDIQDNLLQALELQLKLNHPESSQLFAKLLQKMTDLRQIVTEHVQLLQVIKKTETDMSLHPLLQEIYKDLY
Kind of test: Monomer cofactor recruitment HTRF assay: CBP-1 recruitment by isolated sGFP-PPARγ LBD. The format is biochemical. The following applies: titrated alone, or constant 10 μM against titrated rosiglitazone.

Test [2] concerns the target T3, PPARγ LBD (Homo sapiens, UniProt P37231).
T3 construct: MBP-Asn10-His8-TEV site (N, cleaved yes); made in house; host or cells: E. coli T7 express (co-expressed with GroEL/ES)
T3 sequence (P37231 1-505): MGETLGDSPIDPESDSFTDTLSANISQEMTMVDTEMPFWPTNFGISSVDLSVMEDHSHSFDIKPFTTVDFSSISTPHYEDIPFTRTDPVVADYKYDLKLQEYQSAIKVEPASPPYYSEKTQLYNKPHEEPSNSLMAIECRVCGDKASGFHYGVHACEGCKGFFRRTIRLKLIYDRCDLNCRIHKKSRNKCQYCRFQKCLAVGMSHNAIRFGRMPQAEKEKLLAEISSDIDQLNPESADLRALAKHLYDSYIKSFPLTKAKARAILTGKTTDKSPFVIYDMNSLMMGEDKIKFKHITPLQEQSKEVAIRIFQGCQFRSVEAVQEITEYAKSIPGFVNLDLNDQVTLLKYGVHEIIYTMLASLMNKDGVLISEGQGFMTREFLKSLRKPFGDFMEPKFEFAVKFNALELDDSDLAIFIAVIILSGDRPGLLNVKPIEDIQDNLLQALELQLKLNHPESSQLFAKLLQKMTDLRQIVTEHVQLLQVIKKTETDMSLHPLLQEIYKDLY
Kind of test: Two-dimensional titration of SR11237 and unlabeled mutant RXRα LBD: CBP-1 recruitment by sGFP-PPARγ LBD (HTRF). The format is biochemical. The conditions noted are these: combined addition of SR11237 and RXRα at concentrations equal to PPARγ (100 nM) and higher.

Structures are written as SMILES.

On to `CC1(C)CCC(C)(C)c2cc(C3(c4ccc(C(=O)O)cc4)OCCO3)ccc21` [SR11237], for which the “binding affinity (ITC)” value on RXRα wildtype LBD is “comparable affinity”. Moreover, at PPARγ LBD [1], the “effect on CBP-1 recruitment by isolated PPARγ LBD” value is recorded as “neither activated recruitment of CBP-1 by PPARγ nor impaired rosiglitazone-mediated recruitment”. The “CBP-1 recruitment relative to full activation of monomeric PPARγ with rosiglitazone” value on PPARγ LBD [2] is reported as “up to 26%”.
